Measured values published in the NIST ThermoML archive (doi:10.1021/acs.jced.5b00412).

Conditions: 101.3 kPa, Liquid, Vibrating tube method

NCCCO [3-amino-1-propanol]
Conditions | mass density [kg/m3]
293.15 K | 987.5
298.15 K | 983.6
303.15 K | 979.6
308.15 K | 975.5
313.15 K | 971.5
318.15 K | 967.5
323.15 K | 963.4
328.15 K | 959.3
333.15 K | 955.8
338.15 K | 951.7
343.15 K | 947.6
348.15 K | 943.5
353.15 K | 939.3
